Measured values: paper PMC6181319, “Thermodynamic and computational analyses reveal the functional roles of the galloyl group of tea catechins in molecular recognition” (PLoS ONE, 2018)
Like-named read-outs stand apart in the source and are kept apart here.

Assays:
[1] = target: T1, site I of HSA (Homo sapiens, UniProt P02768); test: ITC competition assay with warfarin (site I marker); assay type: binding; settings: HSA 50 μM, catechin 500 μM, warfarin 500 μM titrated, pH 6.8, 1% DMSO
T1 construct: purchased Sigma-Aldrich Japan (Tokyo, Japan)
Description: To obtain information about the HSA binding site of catechins, we carried out competition assays using ITC. Warfarin was used as a marker for monitoring site I of HSA. […] Warfarin was titrated into the cell containing either HSA or an HSA-EGCg complex at 180-s intervals with constant stirring at 307 rpm. The total amount of heat obtained for each measurement was taken as the total heat quantity (ΔQ), and we verified whether warfarin and the catechins bound to the same site by comparing the ΔQ from the interaction between HSA and warfarin. The binding inhibition rate was defined by the equation belowcalculated as follows: […]

[2] = target: T2, human serum albumin (HSA) (Homo sapiens, UniProt P02768); test: Isothermal titration calorimetry (ITC) of binding of catechins and analogs to HSA; set-up: purchased Sigma-Aldrich Japan (Tokyo, Japan); settings: for change of binding affinity with addition of 0.2 M NaCl: 0.2 M NaCl versus no NaCl
Description: The binding of the catechins and its analogs to HSA was examined in a VP-ITC instrument (Microcal Northampton, MA). […] The data were analyzed with the Origin software (ver. 7) by means of a single-binding-site model. The thermodynamic parameters were obtained from three replicate titrations, where the dilution heats of the ligands were subtracted.

[3] = target: T2, human serum albumin (HSA); test: Differential scanning calorimetry (DSC), thermal stability of HSA–ligand complexes; settings: for Tm: DSC, HSA 50 μM, ligand 500 μM, 50 mM sodium phosphate pH 6.8, HSA alone 68.6 ± 0.1; for ΔTm at 500 µM: human, pH 6.8
Description: The thermal stabilities of HSA and the HSA–ligand complexes were determined by differential scanning calorimetry in a VP-DSC autosampler instrument (GE Healthcare). The cell was heated from 303 to 363 K at a rate of 1 K min^−1. The concentrations of HSA and the ligands were 50 and 500 μM, respectively, in a buffer composed of 50 mM sodium phosphate (pH 6.8). The data analysis was carried out with the Origin software (ver. 7) using a two-state model.

[4] = Table 1, ITC, 298 K, 50 mM sodium phosphate pH 6.8
[5] = Table 1, ITC, 298 K, 50 mM sodium phosphate pH 6.8, HSA 50 μM, single-binding-site model
[6] = Table 2, methylated catechin derivatives, ITC, 298 K

T2 sequence (P02768 25-609): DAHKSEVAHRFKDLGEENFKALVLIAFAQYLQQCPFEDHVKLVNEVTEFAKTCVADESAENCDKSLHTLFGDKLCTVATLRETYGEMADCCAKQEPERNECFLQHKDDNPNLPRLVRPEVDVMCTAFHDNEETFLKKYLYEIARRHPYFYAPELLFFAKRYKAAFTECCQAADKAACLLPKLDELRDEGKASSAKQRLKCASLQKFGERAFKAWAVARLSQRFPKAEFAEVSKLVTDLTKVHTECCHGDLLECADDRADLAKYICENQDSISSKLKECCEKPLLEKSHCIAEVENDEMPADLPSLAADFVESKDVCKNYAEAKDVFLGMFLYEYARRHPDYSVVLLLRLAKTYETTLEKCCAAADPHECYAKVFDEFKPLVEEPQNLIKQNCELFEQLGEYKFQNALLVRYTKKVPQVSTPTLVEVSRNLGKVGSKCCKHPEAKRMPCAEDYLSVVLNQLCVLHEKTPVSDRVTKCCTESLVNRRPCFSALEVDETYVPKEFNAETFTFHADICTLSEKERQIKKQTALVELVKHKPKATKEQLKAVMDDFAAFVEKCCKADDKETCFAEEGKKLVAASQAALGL
T1 sequence (P02768 25-609): as above

`Oc1cc(O)c2c(c1)O[C@H](c1cc(O)c(O)c(O)c1)[C@H](O)C2` [EGC, (−)-epigallocatechin] was tested, and the “binding site compared with warfarin” value [1] was “identical”, the “change of binding affinity with addition of 0.2 M NaCl” value ([2]; ITC) was “increased” and the “thermodynamic profile of binding (enthalpy-driven or entropy-driven)” value ([2]; ITC, 298 K) was “entropy-driven”. The Kd ([2]; KD, S1 Table, ITC binding affinity listed beside Tm) was 20000 ± 16000 nM, the Kd ([2]; KD, S2 Table, NaCl 0 M) was 19500 nM and the Kd ([2]; KD, S2 Table, NaCl 0.2 M) was 6700 nM. The Kd ([2]; KD, Table 1, ITC, 298 K, 50 mM sodium phosphate pH 6.8) was 20000 ± 16000 nM, the ΔH/ΔG ([2]; Table 1, ITC, 298 K) was 10% and the ΔG [2, 4] was -6.3 ± 0.4 kcal/mol. For the same molecule, the ΔH [2, 4] was -0.6 ± 0.4 kcal/mol, the “−TΔS” value [2, 4] was -5.8 ± 0.7 kcal/mol and the “N (number of binding sites)” value [2, 5] was 1.0 ± 0.2. For the same molecule, the Tm [3] was 68.8± 0.2 °C and the ΔTm at 500 µM [3] was 0.2 °C.
In the case of `O=C(O[C@@H]1Cc2c(O)cc(O)cc2O[C@@H]1c1cc(O)c(O)c(O)c1)c1cc(O)c(O)c(O)c1` [EGCg, (−)-epigallocatechin gallate], the “binding site compared with warfarin” value [1] is reported as “identical”, the “change of binding affinity with addition of 0.2 M NaCl” value ([2]; ITC) is reported as “decreased” and the “thermodynamic profile of binding (enthalpy-driven or entropy-driven)” value ([2]; ITC, 298 K) is reported as “enthalpy-driven”. It also gave a Kd ([2]; S1 Table, ITC binding affinity listed beside Tm, read-out: KD) of 2200 ± 300 nM, a Kd ([2]; S2 Table, NaCl 0.2 M, read-out: KD) of 27300 nM and an N ([2]; S3 Table, temperature 288 K) of 1.1±0.1. The ΔG ([2]; S3 Table, temperature 288 K) was -7.4 ± 0.1 kcal/mol, the ΔH ([2]; S3 Table, temperature 288 K) was -3.9 ± 0.5 kcal/mol and the “−TΔS” value ([2]; S3 Table, temperature 288 K) was -3.5 ± 0.5 kcal/mol. It also gave a Kd ([2]; S3 Table, temperature 288 K, read-out: KD) of 2300 ± 100 nM, an N ([2]; S3 Table, temperature 293 K) of 1.1±0.1 and a ΔG ([2]; S3 Table, temperature 293 K) of -7.6 ± 0.7 kcal/mol. The ΔH ([2]; S3 Table, temperature 293 K) was -4.7 ± 0.7 kcal/mol, the “−TΔS” value ([2]; S3 Table, temperature 293 K) was -2.9 ± 0.8 kcal/mol and the Kd ([2]; S3 Table, temperature 293 K, read-out: KD) was 2100 ± 700 nM. It also gave an N ([2]; S3 Table, temperature 298 K) of 1.1±0.1, a ΔG ([2]; S3 Table, temperature 298 K) of -7.8 ± 0.4 kcal/mol and a ΔH ([2]; S3 Table, temperature 298 K) of -5.7 ± 0.7 kcal/mol. The “−TΔS” value ([2]; S3 Table, temperature 298 K) was -2.1 ± 0.6 kcal/mol, the Kd ([2]; S3 Table, temperature 298 K, read-out: KD) was 2000 ± 400 nM and the N ([2]; S3 Table, temperature 303 K) was 1.1±0.1. For the same molecule, the ΔG ([2]; S3 Table, temperature 303 K) was -7.9 ± 0.8 kcal/mol, the ΔH ([2]; S3 Table, temperature 303 K) was -6.1 ± 0.2 kcal/mol and the “−TΔS” value ([2]; S3 Table, temperature 303 K) was -1.8 ± 0.3 kcal/mol. It also gave a Kd ([2]; S3 Table, temperature 303 K, read-out: KD) of 2100 ± 800 nM, a ΔH/ΔG ([2]; Table 1, ITC, 298 K) of 61% and a ΔG [2, 4] of -7.7 ± 0.1 kcal/mol. For the same molecule, the ΔH [2, 4] was -4.7 ± 0.6 kcal/mol, the “−TΔS” value [2, 4] was -3.0 ± 0.6 kcal/mol and the “N (number of binding sites)” value [2, 5] was 1.1 ± 0.1. The Kd ([2]; Table 1, ITC, 298 K, 50 mM sodium phosphate pH 6.8, read-out: KD) was 2200 ± 300 nM, the ΔG [2, 6] was -7.7 ± 0.1 kcal/mol and the “−TΔS” value [2, 6] was -3.0 ± 0.6 kcal/mol. For the same molecule, the “N (number of binding sites)” value ([2]; Table 2, methylated catechin derivatives, ITC, 298 K, 50 mM sodium phosphate pH 6.8) was 1.1 ± 0.1, the Kd ([2]; Table 2, methylated catechin derivatives, ITC, 298 K, 50 mM sodium phosphate pH 6.8, read-out: KD) was 2200 ± 300 nM and the “ΔCp (change in heat capacity)” value ([2]; slope of ΔH versus temperature, 288 to 303 K) was −148 cal mol^−1 K^−1. It also gave a Tm [3] of 71.4 ± 0.3 °C and a ΔTm at 500 µM ([3]; human serum albumin (HSA) 50 µM in buffer) of 2.7 °C.
